By MIC is commonly meant the lowest concentration found to suppress growth.

Experimental findings from US10369138B2, “Monobactam organic compounds for the treatment of bacterial infections” (Novartis AG, priority 2014, dated 2019) are described below.

In brackets after ≈: the same amount, converted by molar mass. Where two headings read alike, the source gives them in different places. Some results are limits rather than exact numbers.

One test relates to E. coli strain 25922. Description: MIC by broth microdilution, E. coli strain 25922. The class given is cell-based. The method, boiled down: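 CLSI broth microdilution in cation-adjusted Mueller-Hinton broth, inoculum about 5×10^5 CFU/mL, 10% DMSO from the diluted series, 20 h at 35-37° C. MIC is the lowest concentration preventing visible growth, read by eye and at 600 nm.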
In general terms: Broth dilution looks for growth in wells or tubes with falling amounts of substance.

A further test has as its system E. coli containing KPC-2. Description: MIC by broth microdilution, E. coli containing KPC-2 (Ec KPC2 Iso). Type of test: cell-based. The following applies: Escherichia coli, read-out: Ec KPC2 Iso (MIC), E. coli containing KPC-2 (carbapenemase from Klebsiella pneumoniae). The method, boiled down:
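Host E. coli BW25113 pspB carrying multicopy pBAD18-kan plasmid with constitutive TEM-promoter KPC-2 expression (periplasmic signal sequence); broth microdilution per CLSI in cation-adjusted Mueller-Hinton broth, inoculum ~5×10^5 CFU/mL, compounds twofold serially diluted from DMSO masters (10% DMSO in dilution series added).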

The mark [1] stands for this setting: Escherichia coli, 25922, E. coli strain 25922, read-out: Ec 25922 (MIC).
Setting [2] is: Escherichia coli, 25922, read-out: Ec 25922 (MIC).

Regarding `N=C(NCCN)c1ccc(OC[C@H](O/N=C(\C(=O)N[C@@H]2C(=O)N(S(=O)(=O)O)[C@@H]2Cn2ncc(CN)n2)c2csc(N)n2)C(=O)O)cc1` [Example 66, (S)-3-(4-(N-(2-aminoethyl)carbamimidoyl)phenoxy)-2-(((Z)-(2-(((2R,3S)-2-((4-(aminomethyl)-2H-1,2,3-triazol-2-yl)methyl)-4-oxo-1-sulfoazetidin-3-yl)amino)-1-(2-aminothiazol-4-yl)-2-oxoethylidene)amino)oxy)propanoic acid], the MIC in the test on E. coli strain 25922 (setting [1]) was 1 µg/mL (≈ 1.44 µM); in the test with E. coli containing KPC-2, 2 µg/mL (≈ 2.88 µM).

`N=C(NCCN)c1ccc(OC[C@H](O/N=C(\C(=O)N[C@@H]2C(=O)N(S(=O)(=O)O)[C@@H]2Cn2cncn2)c2csc(N)n2)C(=O)O)cc1` [Example 67, (S)-2-(((Z)-(2-(((2R,3S)-2-((1H-1,2,4-triazol-1-yl)methyl)-4-oxo-1-sulfoazetidin-3-yl)amino)-1-(2-aminothiazol-4-yl)-2-oxoethylidene)amino)oxy)-3-(4-(N-(2-aminoethyl)carbamimidoyl)phenoxy)propanoic acid]: the results for the minimal inhibitory concentration (MIC) in the test on E. coli strain 25922 (setting [1]) and with E. coli containing KPC-2 were 0.25 µg/mL (≈ 0.376 µM) and 0.125 µg/mL (≈ 0.188 µM), respectively.

Regarding `N=C(NC1CNC1)c1ccc(OC[C@H](O/N=C(\C(=O)N[C@@H]2C(=O)N(S(=O)(=O)O)[C@@H]2Cn2cncn2)c2csc(N)n2)C(=O)O)cc1` [Example 68, (S)-2-(((Z)-(2-(((2R,3S)-2-((1H-1,2,4-triazol-1-yl)methyl)-4-oxo-1-sulfoazetidin-3-yl)amino)-1-(2-aminothiazol-4-yl)-2-oxoethylidene)amino)oxy)-3-(4-(N-(azetidin-3-yl)carbamimidoyl)phenoxy)propanoic acid], the MIC in the test with E. coli strain 25922 (setting [1]) and with E. coli containing KPC-2 was 0.25 µg/mL (≈ 0.369 µM) throughout.

Regarding `NCCCNCc1cn(C[C@@H]2[C@H](NC(=O)/C(=N\OC3(C(=O)O)CC3)c3csc(N)n3)C(=O)N2S(=O)(=O)O)nn1` [Example 69, 1-(((Z)-(2-(((2R,3S)-2-((4-(((3-aminopropyl)amino)methyl)-1H-1,2,3-triazol-1-yl)methyl)-4-oxo-1-sulfoazetidin-3-yl)amino)-1-(2-aminothiazol-4-yl)-2-oxoethylidene)amino)oxy)cyclopropanecarboxylic acid compound with formic acid (1:1)], the MIC with E. coli strain 25922 (setting [2]) is 0.25 µg/mL (≈ 0.426 µM); in the test with E. coli containing KPC-2, 0.125 µg/mL (≈ 0.213 µM).

As for `CC(C)(O/N=C(\C(=O)N[C@@H]1C(=O)N(S(=O)(=O)O)[C@@H]1CN1CCN(CCN)C1=O)c1csc(N)n1)C(=O)O` [Example 70, 2-(((Z)-(2-(((2R,3S)-2-((3-(2-aminoethyl)-2-oxoimidazolidin-1-yl)methyl)-4-oxo-1-sulfoazetidin-3-yl)amino)-1-(2-aminothiazol-4-yl)-2-oxoethylidene)amino)oxy)-2-methylpropanoic acid], the MIC with E. coli strain 25922 (setting [1]) and with E. coli containing KPC-2 was 8 µg/mL (≈ 14.2 µM) throughout.

For `N=C(N[C@H]1CCNC1)c1ccc(OC[C@H](O/N=C(\C(=O)N[C@@H]2C(=O)N(S(=O)(=O)O)[C@@H]2Cn2cncn2)c2csc(N)n2)C(=O)O)cc1` [Example 71, (S)-2-(((Z)-(2-(((2R,3S)-2-((1H-1,2,4-triazol-1-yl)methyl)-4-oxo-1-sulfoazetidin-3-yl)amino)-1-(2-aminothiazol-4-yl)-2-oxoethylidene)amino)oxy)-3-(4-(N—((S)-pyrrolidin-3-yl)carbamimidoyl)phenoxy)propanoic acid], the MIC with E. coli strain 25922 (setting [1]) and in the test on E. coli containing KPC-2 was 0.25 µg/mL (≈ 0.361 µM) throughout.

With `CC(C)(O/N=C(\C(=O)N[C@@H]1C(=O)N(S(=O)(=O)O)[C@@H]1CN1C[C@H](CO)OC1=O)c1csc(N)n1)C(=O)O` [Example 72, 2-(((Z)-(1-(2-aminothiazol-4-yl)-2-(((2R,3S)-2-(((R)-5-(hydroxymethyl)-2-oxooxazolidin-3-yl)methyl)-4-oxo-1-sulfoazetidin-3-yl)amino)-2-oxoethylidene)amino)oxy)-2-methylpropanoic acid], the MIC in the test with E. coli strain 25922 (setting [1]) and in the test with E. coli containing KPC-2 was 4 µg/mL (≈ 7.27 µM) each time.

As to `N=C(N[C@@H]1CCNC1)c1ccc(OC[C@H](O/N=C(\C(=O)N[C@@H]2C(=O)N(S(=O)(=O)O)[C@@H]2Cn2cncn2)c2csc(N)n2)C(=O)O)cc1` [Example 73, (S)-2-(((Z)-(2-(((2R,3S)-2-((1H-1,2,4-triazol-1-yl)methyl)-4-oxo-1-sulfoazetidin-3-yl)amino)-1-(2-aminothiazol-4-yl)-2-oxoethylidene)amino)oxy)-3-(4-(N—((R)-pyrrolidin-3-yl)carbamimidoyl)phenoxy)propanoic acid], the MIC in the test with E. coli strain 25922 (setting [1]) and with E. coli containing KPC-2 was 0.25 µg/mL (≈ 0.361 µM) throughout.

On to `CC(C)(O/N=C(\C(=O)N[C@@H]1C(=O)N(S(=O)(=O)O)[C@@H]1Cn1cnc(C(N)=O)n1)c1csc(N)n1)C(=O)O` [Example 74, 2-(((Z)-(1-(2-aminothiazol-4-yl)-2-(((2R,3S)-2-((3-carbamoyl-1H-1,2,4-triazol-1-yl)methyl)-4-oxo-1-sulfoazetidin-3-yl)amino)-2-oxoethylidene)amino)oxy)-2-methylpropanoic acid], for which the MIC in the test with E. coli strain 25922 (setting [1]) is 8 µg/mL (≈ 14.7 µM); in the test with E. coli containing KPC-2 it was 32 µg/mL (≈ 58.7 µM).

Consider `N=C(NC1CCNCC1)c1ccc(OC[C@H](O/N=C(\C(=O)N[C@@H]2C(=O)N(S(=O)(=O)O)[C@@H]2Cn2cncn2)c2nsc(N)n2)C(=O)O)cc1` [Example 75, (S)-2-(((Z)-(2-(((2R,3S)-2-((1H-1,2,4-triazol-1-yl)methyl)-4-oxo-1-sulfoazetidin-3-yl)amino)-1-(5-amino-1,2,4-thiadiazol-3-yl)-2-oxoethylidene)amino)oxy)-3-(4-(N-(piperidin-4-yl)carbamimidoyl)phenoxy)propanoic acid], for which the MIC in the test on E. coli strain 25922 (setting [1]) and in the test with E. coli containing KPC-2 was 0.5 µg/mL (≈ 0.707 µM) in each case.

As to `CC(C)(O/N=C(\C(=O)N[C@@H]1C(=O)N(S(=O)(=O)O)[C@@H]1CN1CC[C@H](N)C1=O)c1csc(N)n1)C(=O)O` [Example 76, 2-(((Z)-(2-(((2R,3S)-2-(((S)-3-amino-2-oxopyrrolidin-1-yl)methyl)-4-oxo-1-sulfoazetidin-3-yl)amino)-1-(2-aminothiazol-4-yl)-2-oxoethylidene)amino)oxy)-2-methylpropanoic acid], the minimum inhibitory concentration (MIC) was 1 µg/mL (≈ 1.87 µM) in the test on E. coli strain 25922 (setting [1]) and 0.5 µg/mL (≈ 0.937 µM) in the test with E. coli containing KPC-2.

With `N=C(N[C@H]1C[C@H](N)C1)c1ccc(OC[C@H](O/N=C(\C(=O)N[C@@H]2C(=O)N(S(=O)(=O)O)[C@@H]2Cn2cncn2)c2csc(N)n2)C(=O)O)cc1` [Example 77, (S)-2-(((Z)-(2-(((2R,3S)-2-((1H-1,2,4-triazol-1-yl)methyl)-4-oxo-1-sulfoazetidin-3-yl)amino)-1-(2-aminothiazol-4-yl)-2-oxoethylidene)amino)oxy)-3-(4-(N-((1r,3S)-3-aminocyclobutyl)carbamimidoyl)phenoxy)propanoic acid], the MIC is 0.25 µg/mL (≈ 0.361 µM) in the test with E. coli strain 25922 (setting [1]) and 0.125 µg/mL (≈ 0.181 µM) in the test on E. coli containing KPC-2.

Regarding `N=C(NCCCN)c1ccc(OC[C@H](O/N=C(\C(=O)N[C@@H]2C(=O)N(S(=O)(=O)O)[C@@H]2Cn2cncn2)c2csc(N)n2)C(=O)O)cc1` [Example 78, (S)-2-(((Z)-(2-(((2R,3S)-2-((1H-1,2,4-triazol-1-yl)methyl)-4-oxo-1-sulfoazetidin-3-yl)amino)-1-(2-aminothiazol-4-yl)-2-oxoethylidene)amino)oxy)-3-(4-(N-(3-aminopropyl)carbamimidoyl)phenoxy)propanoic acid], the MIC is at most 0.06 µg/mL in the test on E. coli strain 25922 (setting [1]) and 0.125 µg/mL (≈ 0.184 µM) in the test with E. coli containing KPC-2.

For `N=C(NC1CCNCC1)c1ccc(OC[C@H](O/N=C(\C(=O)N[C@@H]2C(=O)N(S(=O)(=O)O)[C@@H]2Cn2cncn2)c2csc(N)n2)C(=O)O)cn1` [Example 79, (S)-2-(((Z)-(2-(((2R,3S)-2-((1H-1,2,4-triazol-1-yl)methyl)-4-oxo-1-sulfoazetidin-3-yl)amino)-1-(2-aminothiazol-4-yl)-2-oxoethylidene)amino)oxy)-3-((6-(N-(piperidin-4-yl)carbamimidoyl)pyridin-3-yl)oxy)propanoic acid], the MIC in the test on E. coli strain 25922 (setting [1]) and in the test with E. coli containing KPC-2 was 0.25 µg/mL (≈ 0.354 µM) each time.

As to `CC(C)(O/N=C(\C(=O)N[C@@H]1C(=O)N(S(=O)(=O)O)[C@@H]1CN1CC[C@H](NC(=N)N)C1=O)c1csc(N)n1)C(=O)O` [Example 80, 2-(((Z)-(1-(2-aminothiazol-4-yl)-2-(((2R,3S)-2-(((S)-3-guanidino-2-oxopyrrolidin-1-yl)methyl)-4-oxo-1-sulfoazetidin-3-yl)amino)-2-oxoethylidene)amino)oxy)-2-methylpropanoic acid], the MIC with E. coli strain 25922 (setting [1]) and in the test on E. coli containing KPC-2 was 4 µg/mL (≈ 6.95 µM) each time.

In the case of `N=C(NC1[C@H]2CNC[C@@H]12)c1ccc(OC[C@H](O/N=C(\C(=O)N[C@@H]2C(=O)N(S(=O)(=O)O)[C@@H]2Cn2cncn2)c2csc(N)n2)C(=O)O)cc1` (stereo partly drawn) [Example 81, (S)-2-(((Z)-(2-(((2R,3S)-2-((1H-1,2,4-triazol-1-yl)methyl)-4-oxo-1-sulfoazetidin-3-yl)amino)-1-(2-aminothiazol-4-yl)-2-oxoethylidene)amino)oxy)-3-(4-(N-((1R,5S,6s)-3-azabicyclo[3.1.0]hexan-6-yl)carbamimidoyl)phenoxy)propanoic acid], the MIC with E. coli strain 25922 (setting [2]) and with E. coli containing KPC-2 was 0.125 µg/mL (≈ 0.178 µM) throughout.

As to `CC(C)(O/N=C(\C(=O)N[C@@H]1C(=O)N(S(=O)(=O)O)[C@@H]1Cc1cc(CN)on1)c1csc(N)n1)C(=O)O` [Example 82, 2-(((Z)-(2-(((2R,3S)-2-((5-(aminomethyl)isoxazol-3-yl)methyl)-4-oxo-1-sulfoazetidin-3-yl)amino)-1-(2-aminothiazol-4-yl)-2-oxoethylidene)amino)oxy)-2-methylpropanoic acid], the MIC with E. coli strain 25922 (setting [1]) and in the test on E. coli containing KPC-2 was 0.5 µg/mL (≈ 0.941 µM) each time.
